We go through 30 substances from patent US8859284B2, “Delivery of nanoparticles to neurons” (The United States of America, as represented by the …, priority 2009, dated 2014).

For this assay, the system named is COS-1 cells. Put plainly: Cellular uptake and endosomal escape of QD-peptide assemblies, fluorescence microscopy. It is filed as cell-based, African green monkey. Conditions: for % Escape in cells with uptake: QD-peptide assemblies; for Overall uptake/escape: uptake: first word of the cell; for Overall uptake/escape: escape: second word of the cell; for intracellular distribution of QD-peptide assemblies: COS-1, 1 hr incubation, 24 hr culture. On the procedure: Merged images were generated using Adobe PhotoShop.
The peptide assemblies were incubated with COS-1 cells for 1 hr, removed, and the cells were subsequently cultured for 24 hr prior to fixation. An AlexaFluor 647-transferrin (Tf) conjugate was included during the incubation to label the vesicles of the endocytic pathway. Cell nuclei were stained with DAPI.

Square brackets hold non-standard residues; d marks the D form. Ends that are not written are not given here. * marks the point of attachment. Farnesyl = CC(C)=CCC/C(C)=C/CC/C(C)=C/C*; Palmitoyl = CCCCCCCCCCCCCCCC(=O)*; Dapaa = not defined here; Dapdi = not defined here; Dab = NCC[C@H](N)C(=O)O; Dap = NC[C@H](N)C(=O)O; Kh = not defined here; bi = not defined here; Aib = CC(C)(N)C(=O)O

Take “WGDapVKIKK(P)9GG(H)6 (WG[Dap]VKIKKPPPPPPPPPGGHHHHHH) [JB579]”: for the setting “COS1 cells”, the “% Escape in cells with uptake” value was 29%, the “Overall uptake/escape: uptake” value is recorded as “Low” and the “Overall uptake/escape: escape” value is given as “low”.

On to “KETWWETWWTEWSQPKKKRKVSGAibAAAGG(H)6 (KETWWETWWTEWSQPKKKRKVSG[Aib]AAAGGHHHHHH) [JB719, Chariot peptide, reference compound]”, for which, where the note is “COS1 cells”, the “% Escape in cells with uptake” value is recorded as 43%, the “Overall uptake/escape: uptake” value was “Moderate” and the “Overall uptake/escape: escape” value is “moderate”.

As to “WGCgVKIKK(P)9GG(H)6 (WGC(Farnesyl)VKIKKPPPPPPPPPGGHHHHHH; not fully specified) [JB872]”, where the note is “COS1 cells”, the “% Escape in cells with uptake” value amounted to 79%, the “Overall uptake/escape: uptake” value is “High” and the “Overall uptake/escape: escape” value is “high”.

Regarding WGDapeVKIKK(P)9GG(H)6 [JB729], for the setting “COS1 cells”, the “% Escape in cells with uptake” value was 84%, the “Overall uptake/escape: uptake” value was “High” and the “Overall uptake/escape: escape” value is “high”.

On to “WGDabaVKIKK(P)9GG(H)6 (WG[Dab](Palmitoyl)VKIKKPPPPPPPPPGGHHHHHH) [JB858]”, for which, under “COS1 cells, cell continues in r20 'localized'”, the “% QD uptake (n), result in words” value is listed as “Membrane”.

For the substance “(H)6GG(P)9VKIKKDapaGW (HHHHHHGGPPPPPPPPPVKIKK[Dap](Palmitoyl)GW) [JB860]”, under “COS1 cells”, the “% Escape in cells with uptake” value was determined as 60%, the “Overall uptake/escape: uptake” value is recorded as “Moderate” and the “Overall uptake/escape: escape” value is listed as “moderate”.

For “biKWGSAibAAALGG(R)10 (bi-KWGS[Aib]AAALGGRRRRRRRRRR; reading uncertain) [JB722, Dye labeled cell penetrating peptide, reference compound]”, under “COS1 cells”, the “% Escape in cells with uptake” value is 1%, the “Overall uptake/escape: uptake” value was “Low” and the “Overall uptake/escape: escape” value was “low”.

For the substance “WGDapaVRL(P)3VRL(P)3VRL(P)3GG(H)6 (WG[Dap](Palmitoyl)VRLPPPVRLPPPVRLPPPGGHHHHHH) [JB869]”, under “COS1 cells”, the “% Escape in cells with uptake” value turned out to be 55%, the “Overall uptake/escape: uptake” value is listed as “High” and the “Overall uptake/escape: escape” value is listed as “moderate”.

For “AcG(Pal)DapVKIKK P9GG H6 (Ac-G[Dap](Palmitoyl)VKIKKPPPPPPPPPGGHHHHHH) [Palm-1b]”, the “intracellular distribution of QD-peptide assemblies” value (“intracellular distribution” below) was “largely well dispersed throughout the cytoplasm”.

Regarding WGDapaVKIKK(P)9GGKb [JB728], where the note is “COS1 cells”, the “% Escape in cells with uptake” value was 93%, the “Overall uptake/escape: uptake” value is recorded as “High” and the “Overall uptake/escape: escape” value was “high”.

For “VKIKKWGDapa(P)9GG(H)6 (VKIKKWG[Dap](Palmitoyl)PPPPPPPPPGGHHHHHH) [JB862]”, for the setting “COS1 cells”, the “% Escape in cells with uptake” value came to 9%, the “Overall uptake/escape: uptake” value is on record as “Low” and the “Overall uptake/escape: escape” value is “low”.

Turning to “KhGDapaVKIKK(P)9GG(H)6 ([Kh]G[Dap](Palmitoyl)VKIKKPPPPPPPPPGGHHHHHH; reading uncertain; also: N-terminal modifications) [JB867]”, the “QD/TAMRA colocalized (integrity)” value (COS1 cells, printed in the % QD uptake column) is on record as over 90%.

As for “(H)6GG(P)9WGDapaVKIKK (HHHHHHGGPPPPPPPPPWG[Dap](Palmitoyl)VKIKK) [JB859]”, where the note is “COS1 cells”, the “% Escape in cells with uptake” value stood at 17%, the “Overall uptake/escape: uptake” value is given as “Moderate” and the “Overall uptake/escape: escape” value was “low”.

For “WGDapVRRRIRR(P)9GG(H)6 (WG[Dap]VRRRIRRPPPPPPPPPGGHHHHHH) [JB585]”, under “COS1 cells”, the “% Escape in cells with uptake” value worked out at 25%, the “Overall uptake/escape: uptake” value is listed as “Low” and the “Overall uptake/escape: escape” value is listed as “low”.

With “WGDapaVKIKK(P)4GG(H)6 (WG[Dap](Palmitoyl)VKIKKPPPPGGHHHHHH) [JB582]”, for the setting “COS1 cells”, the “Overall uptake/escape: uptake” value is listed as “None” and the “Overall uptake/escape: escape” value is listed as “none”.

For the substance “WGDapaVKIKK(P)12GG(H)6 (WG[Dap](Palmitoyl)VKIKKPPPPPPPPPPPPGGHHHHHH) [JB865]”, under “COS1 cells”, the “% Escape in cells with uptake” value was 68%, the “Overall uptake/escape: uptake” value was “High” and the “Overall uptake/escape: escape” value is listed as “moderate”.

As for “AcG(Pal)DapVKIKKGLAAAAGG H6 (Ac-G[Dap](Palmitoyl)VKIKKGLAAAAGGHHHHHH) [Palm-2b]”, the “intracellular distribution” value is “nearly entirely sequestered within endosomes”.

Consider “WGDapdiVKIKK(P)9GG(H)6 (WG[Dapdi]VKIKKPPPPPPPPPGGHHHHHH; reading uncertain) [JB641]”, for which, under “COS1 cells”, the “% Escape in cells with uptake” value was found to be 88%, the “Overall uptake/escape: uptake” value is “Moderate” and the “Overall uptake/escape: escape” value is recorded as “high”.

Consider “AcG(Pal)DapVKIKKGLAPAAGG H6 (Ac-G[Dap](Palmitoyl)VKIKKGLAPAAGGHHHHHH) [Palm-3b]”, for which the “intracellular distribution” value is listed as “nearly entirely sequestered within endosomes”.

Consider “WGDapaVRRRIRR(P)9GG(H)6 (WG[Dap](Palmitoyl)VRRRIRRPPPPPPPPPGGHHHHHH) [JB583]”, for which, where the note is “COS1 cells”, the “% Escape in cells with uptake” value stood at 41%, the “Overall uptake/escape: uptake” value is “Low” and the “Overall uptake/escape: escape” value is “moderate”.

As for “WGDapaGDapaVKIKK(P)9GG(H)6 (WG[Dap](Palmitoyl)G[Dap](Palmitoyl)VKIKKPPPPPPPPPGGHHHHHH) [JB580]”, for the setting “COS1 cells”, the “% Escape in cells with uptake” value came to 92%, the “Overall uptake/escape: uptake” value is listed as “Low” and the “Overall uptake/escape: escape” value is “high”.

Consider “WGDapVRL(P)3VRL(P)3VRL(P)3GG(H)6 (WG[Dap]VRLPPPVRLPPPVRLPPPGGHHHHHH) [JB868]”, for which, for the setting “COS1 cells”, the “% Escape in cells with uptake” value worked out at 18%, the “Overall uptake/escape: uptake” value is “Moderate” and the “Overall uptake/escape: escape” value is recorded as “low”.

As to “WGDapaaVKIKK(P)9GG(H)6 (WG[Dapaa]VKIKKPPPPPPPPPGGHHHHHH; reading uncertain) [JB866]”, for the setting “COS1 cells”, the “% Escape in cells with uptake” value was determined as 11%, the “Overall uptake/escape: uptake” value is listed as “Moderate” and the “Overall uptake/escape: escape” value is “low”.

On to “WGDapaVKIKK(P)15GG(H)6 (WG[Dap](Palmitoyl)VKIKKPPPPPPPPPPPPPPPGGHHHHHH) [JB864]”, for which, for the setting “COS1 cells”, the “% Escape in cells with uptake” value is reported as 85%, the “Overall uptake/escape: uptake” value is “High” and the “Overall uptake/escape: escape” value was “high”.

Regarding WGDapfVKIKK(P)9GG(H)6 [SI09160], under “COS1 cells”, the “% Escape in cells with uptake” value is recorded as 96%, the “Overall uptake/escape: uptake” value is reported as “Moderate” and the “Overall uptake/escape: escape” value is recorded as “high”.

Take WdGDapdiVKIKK(P)9GG(H)6 [JB621]: for the setting “COS1 cells”, the “% Escape in cells with uptake” value came out at 90%, the “Overall uptake/escape: uptake” value is recorded as “Low” and the “Overall uptake/escape: escape” value is reported as “high”.

For the substance WGDapaRRRIRR(P)9GGK [JB588], where the note is “COS1 cells”, the “% Escape in cells with uptake” value is recorded as 85%, the “Overall uptake/escape: uptake” value is on record as “High” and the “Overall uptake/escape: escape” value is reported as “high”.

“WGDapa(P)9GG(H)6 (WG[Dap](Palmitoyl)PPPPPPPPPGGHHHHHH) [JB578]”: for the setting “COS1 cells”, the “% Escape in cells with uptake” value was 46%, the “Overall uptake/escape: uptake” value is “Low” and the “Overall uptake/escape: escape” value is recorded as “moderate”.

In the case of “WGDapaVKIKK(Aib)9GG(H)6 (WG[Dap](Palmitoyl)VKIKK[Aib][Aib][Aib][Aib][Aib][Aib][Aib][Aib][Aib]GGHHHHHH) [JB747]”, for the setting “COS1 cells”, the “% Escape in cells with uptake” value turned out to be 58%, the “Overall uptake/escape: uptake” value was “High” and the “Overall uptake/escape: escape” value is recorded as “moderate”.

As to WGCcVKIKK(P)9GG(H)6 [JB589], under “COS1 cells”, the “% Escape in cells with uptake” value was 50%, the “Overall uptake/escape: uptake” value is reported as “Low” and the “Overall uptake/escape: escape” value was “moderate”.
